Measured values: BindingDB's records for doi:10.1021/jm00157a007 (1987)
pKi: −log10 of the molar value.

Target: Chymotrypsinogen A (Bos taurus) (UniProt P00766)
Test: In vitro binding affinity towards alpha-chymotrypsin from bovine pancreas.

pKi	SMILES
4.12	O=c1ccc(-c2ccccc2)co1 [5-Phenyl-pyran-2-one]
6.57	O=c1oc(Cl)ccc1-c1ccccc1 [6-Chloro-3-phenyl-pyran-2-one]
5.25	CCc1ccc(=O)oc1Cl [6-Chloro-5-ethyl-pyran-2-one]
5.89	O=c1ccc(-c2ccccc2)c(Cl)o1 [6-Chloro-5-phenyl-pyran-2-one]
5.41	CCCCc1ccc(=O)oc1Cl [5-Butyl-6-chloro-pyran-2-one]
